According to patent publication US10265329B2, “Altering steroid metabolism for treatment of steroid-dependent disease” (THE CLEVELAND CLINIC FOUNDATION, priority 2015, dated 2019):

Legend:
[1] = system: AR chromatin occupancy on PSA, TMPRSS2 and FKBP5 regulatory elements; test: AR chromatin occupancy ChIP assay in LNCaP cells; assay type: cell-based, human; conditions: 3 h
Protocol: LNCaP cells were serum-starved for at least 48 h and treated with indicated drugs and DHT for 3 h. A ChIP assay was performed with an anti-AR antibody (Santa Cruz, sc-816) as described previously. Li et al., Proc Natl Acad Sci USA. 108:3116-3123 (2011). All of the precipitated DNA samples were quantified by qPCR and normalized to input DNA. All ChIP experiments were performed at least three times. Primers used for ChIP experiments are from experiments previously described. Evaul et al., Endocrinology, 151:3514-3520 (2010).

[2] = system: PSA, TMPRSS2 and FKBP5 expression; test: Inhibition of androgen-responsive gene expression (qPCR); assay type: cell-based, human
Protocol: Cells were starved with phenol red-free and serum free-medium for at least 48 h and treated with the indicated drugs and/or androgens. RNA was extracted with a GenElute Mammalian Total RNA miniprep kit (Sigma-Aldrich). cDNA was synthesized from 1 μg RNA in a reverse transcription reaction using the iScript cDNA Synthesis Kit (Bio-Rad, Hercules, Calif.). Quantitative PCR (qPCR) analysis was conducted in triplicate with primers for PSA, TMPRSS2, FKBP5, and RPLPO described previously (Chang et al., Cell, 154:1074-1084 (2013), with an ABI 7500 Real-Time PCR machine (Applied Biosystems) using iTaq Fast SYBR Green Supermix with ROX (Bio-Rad) in 96-well plates at a final reaction volume of 20 μL. Accurate quantitation of each mRNA was achieved by normalizing the sample values to RPLPO and to vehicle-treated cells.

LNCaP cells = test: Cell proliferation assay, DHT-stimulated growth; assay type: cell-based, human; conditions: DHT 0.5 nM, 2, 4 and 6 days
Protocol: LNCaP cells (0.1 million/mL) were seeded in 96-well plates and cultured in phenol red free RPMI-1640 mediums plus 10% charcoal stripped FBS with androgens and/or drugs. Medium was changed every other day. After 2, 4 or 6 days, cells were collected and lysed after treatment. Growth was then determined based on DNA content as detected by Hoechst stain and a Wallac Victor2 1420 Multilabel counter (Perkin Elmer). Two-tailed student's t-test was used to determine significance.

C4-2 xenografts = test: C4-2 xenograft progression in orchiectomized mice with DHEA pellet; assay type: in vivo; conditions: 0.5 mmol/kg/d i.p.; compared to Abi acetate and enzalutamide
Protocol: Male NSG mice, 6 to 8 weeks of age were obtained from the Cleveland Clinic Biological Resources Unit facility. All mouse studies were conducted under a protocol approved by the Cleveland Clinic Institutional Animal Care and Use Committee. Sample size was determined based on our prior studies of steroidogenesis inhibition in xenograft models of CRPC. Chang et al., Proc Natl Acad Sci USA., 108:13728-13733 (2011). Criteria for progression were determined based on similar criteria that are utilized for clinical progression. Mice were surgically orchiectomized and implanted with a 5 mg 90-day sustained-release DHEA pellet (Innovative Research of America) to mimic CRPC in the context of human adrenal physiology. Two days later, 10^7 VCaP or C4-2 cells were injected subcutaneously with matrigel. […] Control groups were administered 0.1 mL 5% benzyl alcohol and 95% safflower oil solution via intraperitoneal injection every day. Mice in enzalutamide group were fed with enzalutamide in chow every day (10 mg/Kg/day). Tran et al., Science. 324:787-790 (2009). Treatment was not blinded to the investigator. Tumor volume was measured daily, and time to increase in tumor volume by 20% was determined. […] The significance of the difference between treatment groups was assessed by Kaplan-Meier survival analysis using a log-rank test in SigmaStat 3.5.

[3] = Abi conversion to D4A in mouse serum after Abi acetate; assay type: in vivo; conditions: mice administered Abi acetate i.p.
Protocol: FIG. 1A-FIG. 1E provides chemical structures and graphs showing the structural consequences of the conversion from Abi to D4A that occurs in both mice, and patients, and requires 3βHSD. A, Schematic of Abi conversion to D4A. * double bond and C3-position for substrates and products of 3βHSD. B, Abi is converted to D4A in vivo. Abi acetate was injected i.p. in 5 mice. Blood was collected 2 h and 4 h after injection. Serum concentrations of Abi and D4A were quantified by mass spectrometry and are represented as the percentage of the sum total of Abi+D4A. C, D4A is detectable in all patients (n=12) with CRPC treated with Abi acetate. D, Representative mass spectrometry tracing of D4A and Abi from the serum of a patient treated with Abi acetate. E, 3βHSD1 is capable of converting Abi to D4A. LAPC4 cells overexpressing 3βHSD1 were treated with 10 μM Abi (or [^3H]-DHEA) for 24 h. Abi, D4A (as a percentage of Abi+D4A), [^3H]-DHEA and [^3H]-DHEA metabolites (labeled metabolites), were separated by HPLC. Results are shown as mean (n=3)±s.d. with biological replicates. The experiment was repeated independently at least 3 times.

SMILES: C[C@]12CCC(=O)C=C1CC[C@@H]1[C@@H]2CC[C@]2(C)C(c3cccnc3)=CC[C@@H]12 [Compound D4A, 17-(3-Pyridyl)androsta-4,16-dien-3-one]
- inhibition of DHT-induced AR chromatin occupancy [1]: superior to Abi and somewhat lower than enzalutamide
- suppression of PSA, TMPRSS2 and FKBP5 expression compared to Abi ([2]; induced by DHT, DHEA and R1881, LNCAP, LAPC4 and C4-2 cell lines): clearly better suppresses
- inhibition of DHT-induced endogenous PSA expression ([2]; mutant and wild-type AR (LNCaP and LAPC4)): equivalent to enzalutamide
- effect on DHT-stimulated cell growth (LNCaP cells): more potent than Abi
- progression-free survival (C4-2 xenografts): increased progression-free survival
- detection in sera of mice [3]: detectable
